Results as given in patent publication US20230097866A1, “BACTERIAL TOPOISOMERASE INHIBITORS DERIVED FROM ISOMANNIDE” (Ohio State Innovation Foundation, priority 2020, published 2023).
≈ marks a conversion by molar mass, not a printed value.

Experiments:
[1] = system: H37Rv (rpoB^S450L); type: cell-based, Mycobacterium tuberculosis
[2] = system: H37Rv (katG^del); experiment: microbe, parasite or virus in culture; type: cell-based; conditions: Mycobacterium tuberculosis, microbroth dilution
[3] = system: H37Rv (gyrA^D94K); type: cell-based, Mycobacterium tuberculosis

Compound | MIC H37Rv (rpoB^S450L) [1] | MIC [2] | MIC H37Rv (gyrA^D94K) [3]
COc1ccc2ncc(F)c(CC[C@@]3(O)CO[C@@H]4[C@@H](NCc5ccc(C)cc5)CO[C@@H]43)c2n1 [Compound 25, (3R,3aS,6S,6aR)-3-(2-(3-fluora-6-methoxy-1,5-naphthyridin-4-yl)ethyl)-6-((4-methyllbenzyl)amino)hexahydrofuro[3,2-b]furan-3-ol] | 4 µg/mL (≈ 8.82 µM) | 4 µg/mL (≈ 8.82 µM) | 16 µg/mL (≈ 35.3 µM)
COc1ccc2ncc(F)c(CC[C@@]3(O)CO[C@@H]4[C@@H](NCc5ccc(Cl)c(Cl)c5)CO[C@@H]43)c2n1 [Compound 26, (3R,3aS,6S,6aR)-6-((3,4-dichlorobenzyl)amino)-3-(2-(3-fluoro-6-methoxy-1,5-napkthyridin-4-yl)ethyl)hexahydrofuro[3,2-b]-furan-3-ol] | 1 µg/mL (≈ 1.97 µM) | 1 µg/mL (≈ 1.97 µM) | 2 µg/mL (≈ 3.93 µM)
